Here are results for three molecules from patent US20140271517A1, “DEODORANT FORMULATION” (priority 2013, published 2014).

The structures appear in SMILES notation. Bounds are passed on as bounds.

For series [1] the following is noted: reported pH of the agent; cited from earlier work.
For series [2] the following is noted: broad cross section of people; '16-20 hour protection and more'; previously presented in U.S. Pat. No. 5,512,274; cited from earlier work.
Series [3] relates to microorganisms responsible for the odour in perspiration. In words: destruction of odour-causing microorganisms. Conditions: disinfectant agent in the MgO/ZnO deodorant formulation, 0.5% to 1% by weight. From the text: It is believed that the previously recognized synergy between the zinc and magnesium compounds has been further augmented with the disinfection capacity of a potassium and/or […]. Turning to the specific formulations, in a first embodiment, the deodorant formulation includes magnesium oxide in an amount of between 1% and 2.5% by weight and zinc oxide in an amount of between 0.5% and 1.5% by weight. In order to further augment the efficacy of the formulation, a disinfectant agent is included. As an example, potassium sulfate in an amount of between 0.5% and 1% by weight. Propylene glycol in an amount between 45% and 57% by weight is included. Other polyols may be substituted such as glycenol, etc. Sodium stearate is also present in am amount between 4% and 8% by weight. Glycerin is also present in an amount from between 6% and 10% by weight. The balance of the formulation is obviously water. […] The provision for the suspension is very convenient, since the active ingredients are all present and this suspension can used as a precursor in the formulation of other deodorizing products.

In the case of `[Ca+2].[OH-].[OH-]` [Lime, calcium hydroxide], the pH in series [1] is given as ≥ 12.5. With `[Mg+2].[OH-].[OH-]` [magnesium hydroxide], the “duration of deodorant protection” value in series [2] was 16 to 20 h. The pH in series [1] is on record as ~10.0. With `O=S(=O)([O-])[O-].[K+].[K+]` [potassium sulfate], the “efficacy in destroying the microorganisms responsible for the odour in perspiration” value in series [3] is on record as “particularly effective”.
